Assay results as given in publication PMC5564600 (Oncotarget, 2017).

What was measured:
Experiment in all cases: biochemical
Type in all cases: binding
panel of 442 kinases [1] = target: T1, panel of 442 kinases (Homo sapiens, UniProt O75116); conditions: kinase ROCK2; for remaining activity at 1 µM: read-out: ROCK2 (% of control at 1 µM)
T1 construct: purchased Ambit Biosciences (scanMAXX KINOMEscan)

panel of 442 kinases [2] = target: T2, panel of 442 kinases (Homo sapiens, UniProt O75914); conditions: kinase PAK3; for remaining activity at 1 µM: read-out: % of control at 1 µM
T2 construct: purchased Ambit Biosciences (scanMAXX KINOMEscan)

panel of 442 kinases [3] = target: T3, panel of 442 kinases (Homo sapiens, UniProt O96013); conditions: kinase PAK4; for remaining activity at 1 µM: read-out: % of control at 1 µM
T3 construct: purchased Ambit Biosciences (scanMAXX KINOMEscan)

panel of 442 kinases [4] = target: T4, panel of 442 kinases (Homo sapiens, UniProt P27361); conditions: ERK1; for remaining activity at 1 µM: read-out: % of control at 1 µM
T4 construct: purchased Ambit Biosciences (scanMAXX KINOMEscan)

panel of 442 kinases [5] = target: T5, panel of 442 kinases (Homo sapiens, UniProt P42685); conditions: kinase FRK; for remaining activity at 1 µM: read-out: % of control at 1 µM
T5 construct: purchased Ambit Biosciences (scanMAXX KINOMEscan)

panel of 442 kinases [6] = target: T6, panel of 442 kinases (Homo sapiens, UniProt P53671); conditions: kinase LIMK2; for remaining activity at 1 µM: read-out: % of control at 1 µM
T6 construct: purchased Ambit Biosciences (scanMAXX KINOMEscan)

panel of 442 kinases [7] = target: T7, panel of 442 kinases (Homo sapiens, UniProt P54753); conditions: EPHB3; for remaining activity at 1 µM: read-out: % of control at 1 µM
T7 construct: purchased Ambit Biosciences (scanMAXX KINOMEscan)
T7 sequence (P54753 34-998): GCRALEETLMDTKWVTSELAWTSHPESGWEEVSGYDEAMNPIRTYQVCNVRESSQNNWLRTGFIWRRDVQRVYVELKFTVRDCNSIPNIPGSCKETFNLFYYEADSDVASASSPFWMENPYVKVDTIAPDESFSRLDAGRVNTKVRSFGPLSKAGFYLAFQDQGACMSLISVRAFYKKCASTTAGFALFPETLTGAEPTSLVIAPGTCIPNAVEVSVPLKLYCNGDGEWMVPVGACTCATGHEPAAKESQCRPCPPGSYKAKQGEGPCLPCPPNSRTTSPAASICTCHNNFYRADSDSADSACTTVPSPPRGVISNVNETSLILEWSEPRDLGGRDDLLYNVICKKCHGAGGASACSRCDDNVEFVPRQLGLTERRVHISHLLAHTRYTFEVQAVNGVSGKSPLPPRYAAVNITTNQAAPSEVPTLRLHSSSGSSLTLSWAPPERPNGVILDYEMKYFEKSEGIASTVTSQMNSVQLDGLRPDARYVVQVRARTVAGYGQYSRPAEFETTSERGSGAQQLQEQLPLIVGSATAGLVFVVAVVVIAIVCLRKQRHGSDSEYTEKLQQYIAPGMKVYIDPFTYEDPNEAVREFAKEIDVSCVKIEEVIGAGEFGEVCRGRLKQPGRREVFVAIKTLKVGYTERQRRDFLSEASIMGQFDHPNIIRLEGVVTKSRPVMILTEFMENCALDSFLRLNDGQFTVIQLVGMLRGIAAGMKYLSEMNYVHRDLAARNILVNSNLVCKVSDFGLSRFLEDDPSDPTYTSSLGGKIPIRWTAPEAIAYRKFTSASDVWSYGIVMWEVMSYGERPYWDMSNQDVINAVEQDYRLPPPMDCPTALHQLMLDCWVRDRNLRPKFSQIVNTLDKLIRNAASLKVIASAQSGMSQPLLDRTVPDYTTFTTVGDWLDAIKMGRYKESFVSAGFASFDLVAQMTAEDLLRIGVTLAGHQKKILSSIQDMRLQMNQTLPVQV

panel of 442 kinases [8] = target: T8, panel of 442 kinases (Homo sapiens, UniProt P54760); conditions: EPHB4; for remaining activity at 1 µM: read-out: % of control at 1 µM
T8 construct: purchased Ambit Biosciences (scanMAXX KINOMEscan)
T8 sequence (P54760 16-987): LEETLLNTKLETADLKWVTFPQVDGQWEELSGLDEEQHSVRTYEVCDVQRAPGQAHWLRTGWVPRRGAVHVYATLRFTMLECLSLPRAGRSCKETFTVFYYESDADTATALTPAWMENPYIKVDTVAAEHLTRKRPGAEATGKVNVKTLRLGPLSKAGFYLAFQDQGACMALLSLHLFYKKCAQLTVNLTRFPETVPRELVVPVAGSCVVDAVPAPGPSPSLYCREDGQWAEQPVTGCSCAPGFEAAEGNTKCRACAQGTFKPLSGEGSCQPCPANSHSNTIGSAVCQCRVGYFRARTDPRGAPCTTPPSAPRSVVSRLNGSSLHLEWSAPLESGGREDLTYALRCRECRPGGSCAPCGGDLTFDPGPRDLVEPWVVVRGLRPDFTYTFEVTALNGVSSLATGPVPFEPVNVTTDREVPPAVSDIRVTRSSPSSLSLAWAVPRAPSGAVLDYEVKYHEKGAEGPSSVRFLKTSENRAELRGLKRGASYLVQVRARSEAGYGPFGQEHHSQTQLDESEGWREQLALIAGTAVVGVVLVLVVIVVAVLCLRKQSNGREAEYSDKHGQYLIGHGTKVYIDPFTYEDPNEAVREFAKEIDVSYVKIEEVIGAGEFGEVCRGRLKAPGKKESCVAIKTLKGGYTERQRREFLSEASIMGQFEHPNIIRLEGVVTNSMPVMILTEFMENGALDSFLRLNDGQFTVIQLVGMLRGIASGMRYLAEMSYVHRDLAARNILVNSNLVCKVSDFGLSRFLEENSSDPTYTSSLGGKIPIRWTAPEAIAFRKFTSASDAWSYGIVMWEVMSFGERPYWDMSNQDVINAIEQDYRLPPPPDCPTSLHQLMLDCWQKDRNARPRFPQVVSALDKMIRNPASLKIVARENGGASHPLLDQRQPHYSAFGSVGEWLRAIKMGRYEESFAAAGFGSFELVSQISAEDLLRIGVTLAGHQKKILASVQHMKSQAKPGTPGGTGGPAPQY

panel of 442 kinases [9] = target: T9, panel of 442 kinases (Homo sapiens, UniProt Q15746); conditions: kinase MYLK; for remaining activity at 1 µM: read-out: % of control at 1 µM
T9 construct: purchased Ambit Biosciences (scanMAXX KINOMEscan)
T9 sequence (Q15746 whole entry): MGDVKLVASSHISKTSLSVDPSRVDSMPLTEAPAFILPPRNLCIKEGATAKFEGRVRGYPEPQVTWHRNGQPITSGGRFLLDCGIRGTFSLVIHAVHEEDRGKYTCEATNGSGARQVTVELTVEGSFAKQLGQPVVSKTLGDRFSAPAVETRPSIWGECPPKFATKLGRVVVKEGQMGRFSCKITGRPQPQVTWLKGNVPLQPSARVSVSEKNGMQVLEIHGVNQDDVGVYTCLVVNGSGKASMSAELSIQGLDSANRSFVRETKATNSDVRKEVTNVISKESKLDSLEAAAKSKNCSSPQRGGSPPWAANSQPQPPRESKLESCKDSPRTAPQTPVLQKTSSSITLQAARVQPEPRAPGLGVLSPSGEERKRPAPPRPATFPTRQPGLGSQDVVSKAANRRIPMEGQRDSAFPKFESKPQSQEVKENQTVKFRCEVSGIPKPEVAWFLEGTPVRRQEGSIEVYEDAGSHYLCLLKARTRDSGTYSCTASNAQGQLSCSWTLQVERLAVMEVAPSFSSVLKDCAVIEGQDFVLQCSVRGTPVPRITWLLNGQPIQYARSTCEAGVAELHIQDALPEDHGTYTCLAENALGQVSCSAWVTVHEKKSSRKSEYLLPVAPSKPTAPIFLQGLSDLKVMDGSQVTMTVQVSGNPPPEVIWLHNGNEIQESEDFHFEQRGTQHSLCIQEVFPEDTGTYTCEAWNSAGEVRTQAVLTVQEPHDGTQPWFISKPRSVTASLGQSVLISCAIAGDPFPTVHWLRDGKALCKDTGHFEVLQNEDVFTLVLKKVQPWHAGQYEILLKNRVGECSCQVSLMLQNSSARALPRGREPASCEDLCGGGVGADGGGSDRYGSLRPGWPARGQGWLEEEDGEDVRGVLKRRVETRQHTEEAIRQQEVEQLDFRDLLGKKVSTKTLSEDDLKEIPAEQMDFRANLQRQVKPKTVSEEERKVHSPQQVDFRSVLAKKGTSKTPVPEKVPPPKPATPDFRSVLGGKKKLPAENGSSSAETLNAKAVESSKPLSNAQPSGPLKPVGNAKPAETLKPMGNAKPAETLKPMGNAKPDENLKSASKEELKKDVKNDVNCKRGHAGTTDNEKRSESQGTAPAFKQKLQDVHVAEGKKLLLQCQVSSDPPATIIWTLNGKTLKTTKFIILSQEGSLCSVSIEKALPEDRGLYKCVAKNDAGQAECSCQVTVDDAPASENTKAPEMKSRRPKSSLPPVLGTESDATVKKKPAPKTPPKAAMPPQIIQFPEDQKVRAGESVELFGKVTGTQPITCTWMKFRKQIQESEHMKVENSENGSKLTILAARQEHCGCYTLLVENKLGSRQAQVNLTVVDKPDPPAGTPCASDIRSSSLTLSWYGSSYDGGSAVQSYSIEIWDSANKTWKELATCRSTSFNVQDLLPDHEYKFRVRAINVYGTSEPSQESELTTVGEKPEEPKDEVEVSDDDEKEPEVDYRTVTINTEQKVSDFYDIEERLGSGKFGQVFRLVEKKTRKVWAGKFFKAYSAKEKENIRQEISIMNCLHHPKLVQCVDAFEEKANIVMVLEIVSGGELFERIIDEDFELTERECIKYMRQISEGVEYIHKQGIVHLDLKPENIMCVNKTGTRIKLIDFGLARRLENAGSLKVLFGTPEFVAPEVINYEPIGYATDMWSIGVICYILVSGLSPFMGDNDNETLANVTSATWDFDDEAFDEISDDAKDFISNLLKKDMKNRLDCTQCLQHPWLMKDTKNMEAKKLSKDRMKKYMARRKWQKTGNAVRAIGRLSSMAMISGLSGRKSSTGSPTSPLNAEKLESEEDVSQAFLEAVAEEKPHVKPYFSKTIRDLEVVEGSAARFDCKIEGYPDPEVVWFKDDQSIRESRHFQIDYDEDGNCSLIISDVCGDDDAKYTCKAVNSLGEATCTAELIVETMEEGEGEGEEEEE

panel of 442 kinases [10] = target: T10, panel of 442 kinases (Homo sapiens, UniProt Q9NSY1); conditions: BIKE; for remaining activity at 1 µM: read-out: % of control at 1 µM
T10 construct: purchased Ambit Biosciences (scanMAXX KINOMEscan)

panel of 442 kinases [11] = target: T11, panel of 442 kinases (Homo sapiens, UniProt Q9NY57); conditions: kinase YANK2; for remaining activity at 1 µM: read-out: YANK2 (% of control at 1 µM)
T11 construct: purchased Ambit Biosciences (scanMAXX KINOMEscan)

panel of 442 kinases [12] = target: T12, panel of 442 kinases (Homo sapiens, UniProt Q9P2K8, S808G); conditions: kinase GCN2(Kin.Dom.2,S808G); for remaining activity at 1 µM: read-out: % of control at 1 µM
T12 construct: purchased Ambit Biosciences (scanMAXX KINOMEscan)
T12 sequence (Q9P2K8 whole entry S808G): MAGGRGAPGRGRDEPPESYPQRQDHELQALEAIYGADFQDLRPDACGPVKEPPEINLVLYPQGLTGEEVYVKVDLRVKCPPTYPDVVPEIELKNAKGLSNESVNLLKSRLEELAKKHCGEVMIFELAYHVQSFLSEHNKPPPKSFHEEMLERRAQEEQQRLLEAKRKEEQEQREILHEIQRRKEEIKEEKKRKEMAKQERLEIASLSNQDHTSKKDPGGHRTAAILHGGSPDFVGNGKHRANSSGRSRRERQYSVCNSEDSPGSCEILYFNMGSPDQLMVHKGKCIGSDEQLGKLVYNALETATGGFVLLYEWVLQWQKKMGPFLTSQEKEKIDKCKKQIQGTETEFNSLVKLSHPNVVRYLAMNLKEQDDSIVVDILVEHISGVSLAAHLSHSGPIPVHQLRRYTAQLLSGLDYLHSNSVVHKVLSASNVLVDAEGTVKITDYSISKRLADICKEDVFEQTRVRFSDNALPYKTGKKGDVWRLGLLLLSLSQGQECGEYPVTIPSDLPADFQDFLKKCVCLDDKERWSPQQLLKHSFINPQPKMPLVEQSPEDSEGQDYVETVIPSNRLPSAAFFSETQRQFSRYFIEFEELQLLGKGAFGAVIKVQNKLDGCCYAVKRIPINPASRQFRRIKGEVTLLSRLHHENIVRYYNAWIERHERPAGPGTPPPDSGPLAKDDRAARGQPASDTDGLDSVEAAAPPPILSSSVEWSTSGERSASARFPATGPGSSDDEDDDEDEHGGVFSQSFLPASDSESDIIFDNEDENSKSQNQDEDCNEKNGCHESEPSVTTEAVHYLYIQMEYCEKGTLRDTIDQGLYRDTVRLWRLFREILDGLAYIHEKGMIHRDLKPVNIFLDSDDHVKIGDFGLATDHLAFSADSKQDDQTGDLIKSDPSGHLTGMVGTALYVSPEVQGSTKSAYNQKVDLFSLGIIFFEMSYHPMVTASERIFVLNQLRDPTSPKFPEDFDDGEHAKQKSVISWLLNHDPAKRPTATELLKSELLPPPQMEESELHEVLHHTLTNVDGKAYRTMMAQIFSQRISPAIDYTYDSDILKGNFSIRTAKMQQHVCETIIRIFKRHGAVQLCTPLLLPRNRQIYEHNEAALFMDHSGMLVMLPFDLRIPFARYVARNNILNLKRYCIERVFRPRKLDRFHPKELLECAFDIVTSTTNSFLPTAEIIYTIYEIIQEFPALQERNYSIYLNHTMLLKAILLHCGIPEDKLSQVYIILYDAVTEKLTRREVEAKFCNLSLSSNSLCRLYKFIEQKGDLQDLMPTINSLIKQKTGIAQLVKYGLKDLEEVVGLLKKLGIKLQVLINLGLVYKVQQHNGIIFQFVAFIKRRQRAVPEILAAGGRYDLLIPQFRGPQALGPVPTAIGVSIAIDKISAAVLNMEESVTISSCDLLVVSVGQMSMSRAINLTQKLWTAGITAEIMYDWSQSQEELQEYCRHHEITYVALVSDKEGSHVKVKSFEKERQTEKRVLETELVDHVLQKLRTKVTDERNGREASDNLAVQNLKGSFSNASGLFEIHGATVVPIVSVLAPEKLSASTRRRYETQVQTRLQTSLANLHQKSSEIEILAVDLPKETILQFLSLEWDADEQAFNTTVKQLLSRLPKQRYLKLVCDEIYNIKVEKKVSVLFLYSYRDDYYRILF

[13] = 10 µM, read-out: % of control at 10 µM

T1 sequence (O75116 whole entry): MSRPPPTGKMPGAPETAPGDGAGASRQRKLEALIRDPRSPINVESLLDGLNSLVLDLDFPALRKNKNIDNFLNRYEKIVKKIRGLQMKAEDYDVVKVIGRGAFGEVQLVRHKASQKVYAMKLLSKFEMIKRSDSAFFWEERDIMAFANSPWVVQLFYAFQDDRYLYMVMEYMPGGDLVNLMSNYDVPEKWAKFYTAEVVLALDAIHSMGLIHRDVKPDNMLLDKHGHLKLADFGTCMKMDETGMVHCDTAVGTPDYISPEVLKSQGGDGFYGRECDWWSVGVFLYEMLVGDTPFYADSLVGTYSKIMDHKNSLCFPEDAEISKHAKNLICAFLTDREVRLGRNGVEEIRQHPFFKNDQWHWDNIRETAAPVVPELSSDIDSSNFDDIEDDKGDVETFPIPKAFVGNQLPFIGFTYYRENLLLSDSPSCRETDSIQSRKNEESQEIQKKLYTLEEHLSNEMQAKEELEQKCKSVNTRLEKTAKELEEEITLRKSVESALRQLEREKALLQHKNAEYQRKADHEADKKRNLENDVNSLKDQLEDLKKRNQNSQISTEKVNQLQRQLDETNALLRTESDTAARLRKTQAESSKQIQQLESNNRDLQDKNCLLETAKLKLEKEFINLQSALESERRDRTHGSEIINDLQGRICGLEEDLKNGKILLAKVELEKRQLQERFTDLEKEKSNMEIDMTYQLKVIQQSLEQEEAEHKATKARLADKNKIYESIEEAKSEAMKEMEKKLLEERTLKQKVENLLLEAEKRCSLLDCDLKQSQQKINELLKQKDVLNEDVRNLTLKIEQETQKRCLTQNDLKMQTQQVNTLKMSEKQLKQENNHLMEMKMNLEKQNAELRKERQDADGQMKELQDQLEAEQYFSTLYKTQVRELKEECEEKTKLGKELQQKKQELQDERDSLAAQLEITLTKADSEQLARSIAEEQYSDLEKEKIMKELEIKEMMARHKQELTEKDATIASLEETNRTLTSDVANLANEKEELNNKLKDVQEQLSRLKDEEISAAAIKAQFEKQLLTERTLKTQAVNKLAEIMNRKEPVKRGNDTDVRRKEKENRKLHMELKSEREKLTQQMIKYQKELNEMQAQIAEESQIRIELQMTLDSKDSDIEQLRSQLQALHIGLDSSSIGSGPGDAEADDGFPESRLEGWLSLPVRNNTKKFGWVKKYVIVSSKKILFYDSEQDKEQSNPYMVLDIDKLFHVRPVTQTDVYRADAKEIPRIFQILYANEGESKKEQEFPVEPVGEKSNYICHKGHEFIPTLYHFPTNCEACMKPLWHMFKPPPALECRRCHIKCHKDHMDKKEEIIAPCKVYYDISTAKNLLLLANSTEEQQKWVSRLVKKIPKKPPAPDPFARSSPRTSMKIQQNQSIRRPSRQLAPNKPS

With `Nc1cc(C(F)(F)F)c(-c2cc(N3CCOCC3)nc(N3CCOCC3)n2)cn1` [Buparlisib] the remaining activity at 1 µM (panel of 442 kinases [1]) was 100%, the remaining activity at 10 µM (panel of 442 kinases [1]; 10 µM, read-out: ROCK2 (% of control at 10 µM)) was 89% and the remaining activity at 1 µM (panel of 442 kinases [2]) was 89%. For the same compound, the remaining activity at 10 µM (panel of 442 kinases [2]; [13]) was 100%, the remaining activity at 1 µM (panel of 442 kinases [3]) was 93% and the remaining activity at 10 µM (panel of 442 kinases [3]; [13]) was 100%. It also gave a remaining activity at 1 µM (panel of 442 kinases [4]) of 92%, a remaining activity at 10 µM (panel of 442 kinases [4]; [13]) of 100% and a remaining activity at 1 µM (panel of 442 kinases [5]) of 100%. For the same compound, the remaining activity at 10 µM (panel of 442 kinases [5]; [13]) was 100%, the remaining activity at 1 µM (panel of 442 kinases [6]) was 100% and the remaining activity at 10 µM (panel of 442 kinases [6]; [13]) was 100%. It also gave a remaining activity at 1 µM (panel of 442 kinases [7]) of 91%, a remaining activity at 10 µM (panel of 442 kinases [7]; [13]) of 100% and a remaining activity at 1 µM (panel of 442 kinases [8]) of 100%. The remaining activity at 10 µM (panel of 442 kinases [8]; [13]) was 100%, the remaining activity at 1 µM (panel of 442 kinases [9]) was 99% and the remaining activity at 10 µM (panel of 442 kinases [9]; [13]) was 92%. The remaining activity at 1 µM (panel of 442 kinases [10]) was 98%, the remaining activity at 10 µM (panel of 442 kinases [10]; [13]) was 100% and the remaining activity at 1 µM (panel of 442 kinases [11]) was 100%. The remaining activity at 10 µM (panel of 442 kinases [11]; 10 µM, read-out: YANK2 (% of control at 10 µM)) was 100%, the remaining activity at 1 µM (panel of 442 kinases [12]) was 100% and the remaining activity at 10 µM (panel of 442 kinases [12]; [13]) was 100%.

`Cn1c(=O)n(-c2ccc(C(C)(C)C#N)cc2)c2c3cc(-c4cnc5ccccc5c4)ccc3ncc21` [Dactolisib, 2-methyl-2-[4-(3-methyl-2-oxo-8-quinolin-3-yl-2,3-dihydroimidazo[4,5-c]quinolin-1-yl)-phenyl] propionitrile] showed a remaining activity at 1 µM (panel of 442 kinases [1]) of 60%, a remaining activity at 1 µM (panel of 442 kinases [2]) of 86% and a remaining activity at 1 µM (panel of 442 kinases [3]) of 100%. The remaining activity at 1 µM (panel of 442 kinases [4]) was 97%, the remaining activity at 1 µM (panel of 442 kinases [5]) was 85% and the remaining activity at 1 µM (panel of 442 kinases [6]) was 91%. It also gave a remaining activity at 1 µM (panel of 442 kinases [7]) of 70%, a remaining activity at 1 µM (panel of 442 kinases [8]) of 97% and a remaining activity at 1 µM (panel of 442 kinases [9]) of 100%. It also gave a remaining activity at 1 µM (panel of 442 kinases [10]) of 53%, a remaining activity at 1 µM (panel of 442 kinases [11]) of 96% and a remaining activity at 1 µM (panel of 442 kinases [12]) of 87%.

With `COc1ncc(-c2ccc3nccc(-c4ccnnc4)c3c2)cc1NS(=O)(=O)c1ccc(F)cc1F` [Omipalisib] the remaining activity at 1 µM (panel of 442 kinases [1]) was 89%, the remaining activity at 1 µM (panel of 442 kinases [2]) was 100% and the remaining activity at 1 µM (panel of 442 kinases [3]) was 95%. The remaining activity at 1 µM (panel of 442 kinases [4]) was 100%, the remaining activity at 1 µM (panel of 442 kinases [5]) was 98% and the remaining activity at 1 µM (panel of 442 kinases [6]) was 89%. It also gave a remaining activity at 1 µM (panel of 442 kinases [7]) of 100%, a remaining activity at 1 µM (panel of 442 kinases [8]) of 100% and a remaining activity at 1 µM (panel of 442 kinases [9]) of 78%. The remaining activity at 1 µM (panel of 442 kinases [10]) was 82%, the remaining activity at 1 µM (panel of 442 kinases [11]) was 100% and the remaining activity at 1 µM (panel of 442 kinases [12]) was 100%.

`FC(F)c1nc2ccccc2n1-c1nc(N2CCOCC2)nc(N2CCOCC2)n1` [ZSTK474, 2-(difluoromethyl)-1-[4,6-di(4-morpholinyl)-1,3,5-triazin-2-yl]-1H-benzimidazole] showed a remaining activity at 1 µM (panel of 442 kinases [1]) of 86%, a remaining activity at 1 µM (panel of 442 kinases [2]) of 73% and a remaining activity at 1 µM (panel of 442 kinases [3]) of 96%. It also gave a remaining activity at 1 µM (panel of 442 kinases [4]) of 100%, a remaining activity at 1 µM (panel of 442 kinases [5]) of 83% and a remaining activity at 1 µM (panel of 442 kinases [6]) of 100%. The remaining activity at 1 µM (panel of 442 kinases [7]) was 56%, the remaining activity at 1 µM (panel of 442 kinases [8]) was 92% and the remaining activity at 1 µM (panel of 442 kinases [9]) was 100%. For the same compound, the remaining activity at 1 µM (panel of 442 kinases [10]) was 53%, the remaining activity at 1 µM (panel of 442 kinases [11]) was 100% and the remaining activity at 1 µM (panel of 442 kinases [12]) was 89%.
